Patent publication US9770445B2, “Sulfoximine substituted 5-fluoro-N-(pyridin-2-yl)pyridin-2-amine derivatives and their use as CDK9 kinase inhibitors” (BAYER PHARMA AKTIENGESELLSCHAFT, priority 2013, dated 2017)

Molecular target: T1, CDK2/CycE (Homo sapiens, UniProt P24941)
T1 construct: GST; purchased ProQinase GmbH (Freiburg, Germany); host or cells: insect cells (Sf9)
Test: CDK2/CycE kinase assay (Method 2, TR-FRET)
Assay type: biochemical
Conditions: Method 2, 10 μM ATP
From the text: 2. CDK2/CycE Kinase Assay:
CDK2/CycE-inhibitory activity of compounds of the present invention was quantified employing the CDK2/CycE TR-FRET assay as described in the following paragraphs:
Recombinant fusion proteins of GST and human CDK2 and of GST and human CycE, expressed in insect cells (Sf9) and purified by Glutathion-Sepharose affinity chromatography, were purchased from ProQinase GmbH (Freiburg, Germany). As substrate for the kinase reaction biotinylated peptide biotin-Ttds-YISPLKSPYKISEG (C-terminus in amid form) was used which can be purchased e.g. form the company JERINI Peptide Technologies (Berlin, Germany).
For the assay 50 nl of a 100 fold concentrated solution of the test compound in DMSO was pipetted into a black low volume 384 well microtiter plate (Greiner Bio-One, Frickenhausen, Germany), 2 μl of a solution of CDK2/CycE in aqueous assay buffer [50 mM Tris/HCl pH 8.0, 10 mM MgCl2, 1.0 mM dithiothreitol, 0.1 mM sodium ortho-vanadate, 0.01% (v/v) Nonidet-P40 (Sigma)] were added and the mixture was incubated for 15 min at 22° C. to allow pre-binding of the test compounds to the enzyme before the start of the kinase reaction. Then the kinase reaction was started by the addition of 3 μl of a solution of adenosine-tri-phosphate (ATP, 16.7 μM=>final conc. in the 5 μl assay volume is 10 μM) and substrate (1.25 μM=>final conc. in the 5 μl assay volume is 0.75 μM) in assay buffer and the resulting mixture was incubated for a reaction time of 25 min at 22° C. The concentration of CDK2/CycE was adjusted depending of the activity of the enzyme lot and was chosen appropriate to have the assay in the linear range, typical concentrations were in the range of 130 ng/mL. The reaction was stopped by the addition of 5 μl of a solution of TR-FRET detection reagents (0.2 μM streptavidine-XL665 [Cisbio Bioassays, Codolet, France] and 1 nM anti-RB(pSer807/pSer811)-antibody from BD Pharmingen [#558389] and 1.2 nM LANCE EU-W1024 labeled anti-mouse IgG antibody [Perkin-Elmer, product no. AD0077]) in an aqueous EDTA-solution (100 mM EDTA, 0.2% (w/v) bovine serum albumin in 100 mM HEPES/NaOH pH 7.0).
The resulting mixture was incubated 1 h at 22° C. to allow the formation of complex between the phosphorylated biotinylated peptide and the detection reagents. Subsequently the amount of phosphorylated substrate was evaluated by measurement of the resonance energy transfer from the Eu-chelate to the streptavidine-XL. Therefore, the fluorescence emissions at 620 nm and 665 nm after excitation at 350 nm was measured in a TR-FRET reader, e.g. a Rubystar (BMG Labtechnologies, Offenburg, Germany) or a Viewlux (Perkin-Elmer). The ratio of the emissions at 665 nm and at […] was taken as the measure for the amount of phosphorylated substrate. The data were normalised (enzyme reaction without inhibitor=0% inhibition, all other assay components but no enzyme=100% inhibition).

| IC50 | Structure (SMILES) |
| --- | --- |
| 121 nM | CS(=N)(=O)Cc1ccnc(Nc2cc(-c3ccc(F)c4ccoc34)c(F)cn2)c1 (single isomer, unassigned; (-)) [Example 15, (−)-5-Fluoro-4-(4-fluoro-1-benzofuran-7-yl)-N-{4-[(S-methylsulfonimidoyl)methyl]pyridin-2-yl}pyridin-2-amine] |
| 142 nM | CS(=N)(=O)Cc1ccnc(Nc2cc(-c3ccc(F)c4ccoc34)c(F)cn2)c1 (single isomer, unassigned; (+)) [Example 14, (+)-5-Fluoro-4-(4-fluoro-1-benzofuran-7-yl)-N-{4-[(S-methylsulfonimidoyl)methyl]pyridin-2-yl}pyridin-2-amine] |
